Laboratory results reported in PubChem BioAssay (NCI).
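Five concentrations, 48 hours, 96-well plates. TGI: total growth inhibition.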 *1 amine or outer side, *2 acyl side, *3 side chain or, on linkers, in order; H or OH if unused. Where a SMILES comes first, the peptide text is derived from it. [ ]: non-standard residue; d: D form. The star is where a group is joined. X31 = CC(=O)N(C)SCC(N[*:1])C(=O)[*:2]; Cbz = O=C(OCc1ccccc1)*; Bn = c1ccc(C*)cc1; For = O=C*

Legend:
Test in all cases: NCI tumour cell line growth inhibition, 48 h
SK-MEL-28 melanoma = test system: SK-MEL-28 melanoma
A498 renal = test system: A498 renal
NCI-H23 lung = test system: NCI-H23 lung
ACHN renal = test system: ACHN renal
PC-3 prostate = test system: PC-3 prostate
786-0 renal = test system: 786-0 renal
NCI-H226 lung = test system: NCI-H226 lung
M14 melanoma = test system: M14 melanoma
OVCAR-3 ovarian = test system: OVCAR-3 ovarian
CCRF-CEM leukemia = test system: CCRF-CEM leukemia
SK-MEL-2 melanoma = test system: SK-MEL-2 melanoma
T-47D breast = test system: T-47D breast
RXF 393 renal = test system: RXF 393 renal

SMILES | TGI (SK-MEL-28 melanoma) | TGI (A498 renal) | TGI (NCI-H23 lung) | TGI (ACHN renal) | TGI (PC-3 prostate) | TGI (786-0 renal) | TGI (NCI-H226 lung) | TGI (M14 melanoma) | TGI (OVCAR-3 ovarian) | TGI (CCRF-CEM leukemia) | TGI (SK-MEL-2 melanoma) | TGI (T-47D breast) | TGI (RXF 393 renal)
COC(=O)C1(C(=O)OC)Cc2ccc(OC)cc2C2=C1C(=O)c1ccccc1C2=O | 31.4 µM | 41.8 µM | 21.9 µM | 15.1 µM | 4.18 µM | > 47.9 µM | 36.9 µM | 34.5 µM | 3.69 µM | 11.8 µM | 15.7 µM | 6.9 µM | –
CC(=O)N(C)SCC(NC(=O)C(Cc1ccccc1)NC(=O)OCc1ccccc1)C(=O)NC(Cc1ccccc1)C(=O)NC(Cc1cn(C=O)c2ccccc12)C(=O)NC(CCCCNC(=O)OCc1ccccc1)C(=O)NC(C(=O)NC(CSN(C)C(C)=O)C(=O)NC(C(N)=O)C(C)OCc1ccccc1)C(C)OCc1ccccc1 (stereo not drawn) (Cbz-F[X31]FW(For)K(Cbz)T(Bn)[X31]T(Bn)-NH2; configuration not given here) | > 100 µM | – | > 100 µM | > 100 µM | > 100 µM | > 100 µM | > 100 µM | > 100 µM | > 100 µM | > 100 µM | 28.7 µM | > 100 µM | 41.9 µM
CCOC(=O)/C(C#N)=C\c1ccc(N(CCC(=O)O)CCC(=O)O)c(I)c1 | > 10 µM | – | > 10 µM | > 10 µM | > 10 µM | > 10 µM | > 10 µM | > 10 µM | – | > 10 µM | – | > 10 µM | > 10 µM
CC1=NN(C(=O)c2ccccc2O)C(=O)/C1=C/c1ccco1 | > 100 µM | > 100 µM | > 26.9 µM | > 100 µM | 46 µM | > 100 µM | 44.4 µM | > 100 µM | 6.11 µM | > 100 µM | > 100 µM | > 100 µM | –
O=C1CCC2C(O)c3cc4c(cc3C(c3ccc5c(c3)OCO5)N12)OCO4 (stereo not drawn) | > 100 µM | > 100 µM | > 100 µM | > 100 µM | > 100 µM | > 100 µM | > 100 µM | > 100 µM | > 100 µM | > 100 µM | > 100 µM | > 100 µM | –
CCOC(=O)P(=O)(O)c1ccc(N(C)Cc2ccccc2)cc1 | > 100 µM | > 100 µM | > 100 µM | > 100 µM | > 100 µM | > 100 µM | > 100 µM | > 100 µM | > 100 µM | > 100 µM | > 100 µM | > 100 µM | –
O=C(Nc1ccc(Cl)cc1)NS(=O)(=O)c1coc2cc(F)ccc2c1=O | > 100 µM | – | > 100 µM | > 100 µM | > 100 µM | > 100 µM | > 100 µM | > 100 µM | > 100 µM | > 100 µM | > 100 µM | > 100 µM | > 100 µM
C=CCOc1cccc(C2(O)c3ccccc3C3=NCCCN32)c1 (stereo not drawn) | 24.7 µM | 53.2 µM | > 47.2 µM | 26.5 µM | > 44.4 µM | 25.2 µM | > 31.6 µM | 26.1 µM | 10.4 µM | 40.9 µM | 17.5 µM | 45.5 µM | –
CC[C@]1(Cc2ccc(OC)c(OC)c2)C=[N+]([O-])O[C@H](OC2CCCC2(c2ccccc2)c2ccccc2)[C@@H]1OC(=O)c1ccccc1 (stereo partly drawn) | > 100 µM | – | > 45.9 µM | > 34.8 µM | > 100 µM | > 100 µM | > 100 µM | > 100 µM | 13.7 µM | > 30.1 µM | 37.5 µM | > 27.2 µM | > 25.9 µM
C(=C\c1cccs1)/c1cccc(/C=C/c2cccs2)n1 | > 100 µM | – | > 100 µM | 38.9 µM | > 100 µM | > 100 µM | > 100 µM | > 100 µM | > 100 µM | > 100 µM | > 100 µM | > 100 µM | > 100 µM
Cc1nc2ccccc2n1COC(Cn1ccnc1)c1ccc(Cl)cc1Cl (stereo not drawn) | > 100 µM | > 100 µM | > 100 µM | > 100 µM | > 100 µM | > 100 µM | – | > 100 µM | > 100 µM | > 100 µM | > 100 µM | > 100 µM | –
C=CCNC(=O)NC(=O)CSC1=NNC2(C(=O)N1)c1ccccc1-c1ccccc12 | > 10 µM | – | > 10 µM | > 10 µM | > 10 µM | > 10 µM | > 10 µM | > 10 µM | – | > 10 µM | – | > 10 µM | > 10 µM
CCSc1[nH]c(NC(=S)NC(=O)c2ccccc2Cl)c(C(N)=O)c1C(N)=O | > 10 µM | – | > 10 µM | – | > 10 µM | > 10 µM | – | > 10 µM | – | > 10 µM | – | > 10 µM | > 10 µM
Cn1c(=O)c(Br)c(C=O)n(CCO[N+](=O)[O-])c1=O | 4.73 µM | 33.4 µM | 19.4 µM | 13.2 µM | 23.5 µM | 17.3 µM | > 100 µM | 15 µM | – | 5.25 µM | 15.8 µM | 14.6 µM | –
